A short description of data set [1]: Cytotoxicity against hiPSC neural cells assessed as reduction in cell viability at 10 uM incubated for 24 hrs by MTT assay. The data set is classed as cell-based. As to conditions: human, induced pluripotent stem cell-derived neuron.
The target in data set [2] is Acetylcholinesterase (Electrophorus electricus) (UniProt O42275). In words: Inhibition of electric eel AChE at 100 uM using acetylthiocholine iodide as substrate by Ellman's colorimetric analysis relative to control.
A short description of data set [3]: Octanol/water partition coefficient, log D of compound at pH 7.4 at 1 uM incubated for 2 hrs by LC-MS analysis. The class given is physicochemical.
The target in data set [4] is Cholinesterase (Equus caballus) (UniProt P81908). Kind of data set: Inhibition of equine serum BuChE at 100 uM using butyrylthiocholine iodide as substrate by Ellman's colorimetric analysis relative to control.
Data set [5] deals with T1, Tyrosine-protein kinase Fyn (Homo sapiens, UniProt P06241). In words: Inhibition of basal Fyn activation in hiPSC neural progenitor cells assessed as reduction in pFyn levels in absence of amyloid beta at 10 uM by DAPI staining based immunofluorescence assay. The following applies: induced pluripotent stem cell-derived neuron.
Target sequence in this assay (P06241 whole entry): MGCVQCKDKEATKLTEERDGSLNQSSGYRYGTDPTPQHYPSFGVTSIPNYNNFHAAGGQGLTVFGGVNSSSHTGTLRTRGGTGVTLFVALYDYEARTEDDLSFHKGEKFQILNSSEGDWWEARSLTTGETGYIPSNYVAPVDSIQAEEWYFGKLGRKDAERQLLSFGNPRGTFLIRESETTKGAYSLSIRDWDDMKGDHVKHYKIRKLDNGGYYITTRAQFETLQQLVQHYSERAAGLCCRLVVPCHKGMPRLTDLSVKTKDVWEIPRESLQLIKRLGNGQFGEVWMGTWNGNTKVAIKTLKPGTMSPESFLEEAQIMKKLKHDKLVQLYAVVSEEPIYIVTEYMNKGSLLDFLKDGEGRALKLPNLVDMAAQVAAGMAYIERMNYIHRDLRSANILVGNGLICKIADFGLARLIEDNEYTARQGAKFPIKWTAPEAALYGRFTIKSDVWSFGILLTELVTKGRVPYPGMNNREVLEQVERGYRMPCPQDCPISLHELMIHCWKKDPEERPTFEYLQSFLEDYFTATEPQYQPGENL
Data set [6] concerns the target Amyloid-beta precursor protein (Homo sapiens) (UniProt P05067). In words: Inhibition of human amyloid beta (1 to 42) self-induced aggregation at 50 uM by Thioflavin T based fluorometric assay.
Data set [7] has as its system Saccharomyces cerevisiae. Kind of data set: Competitive inhibition of Saccharomyces cerevisiae alpha-glucosidase at 100 uM using p-nitrophenyl glycosides as substrate measured for 125 secs by spectrophotometry analysis relative to control. As to conditions: time 125.0 sec.
A short description of data set [8]: Competitive inhibition of Saccharomyces cerevisiae alpha-glucosidase assessed as inhibition constant for inhibitor-enzyme complex formation using p-nitrophenyl glycosides as substrate measured for 125 secs by spectrophotometry analysis.
The nature of data set [9]: Aggregation property of the compound in PBS buffer assessed as aggregate formation at 10 to 100 uM incubated for 2 hrs by light scattering spectrofluorimetric assay. The class given is physicochemical. The following applies: dose 10-100 µM.
Data set [10] has as its target T1, Tyrosine-protein kinase Fyn. Kind of data set: Inhibition of amyloid beta-induced Fyn activation in hiPSC neural cells assessed as reduction in tau phosphorylation at Thr 181 residue at 10 uM measured after 4 days by DAPI/Alexa fluor 594 staining based immunocytochemistry analysis. The following applies: Induced pluripotent stem cell-derived neuron, time 4.0 day.
Target sequence in this assay (P06241 2-537 limits assumed): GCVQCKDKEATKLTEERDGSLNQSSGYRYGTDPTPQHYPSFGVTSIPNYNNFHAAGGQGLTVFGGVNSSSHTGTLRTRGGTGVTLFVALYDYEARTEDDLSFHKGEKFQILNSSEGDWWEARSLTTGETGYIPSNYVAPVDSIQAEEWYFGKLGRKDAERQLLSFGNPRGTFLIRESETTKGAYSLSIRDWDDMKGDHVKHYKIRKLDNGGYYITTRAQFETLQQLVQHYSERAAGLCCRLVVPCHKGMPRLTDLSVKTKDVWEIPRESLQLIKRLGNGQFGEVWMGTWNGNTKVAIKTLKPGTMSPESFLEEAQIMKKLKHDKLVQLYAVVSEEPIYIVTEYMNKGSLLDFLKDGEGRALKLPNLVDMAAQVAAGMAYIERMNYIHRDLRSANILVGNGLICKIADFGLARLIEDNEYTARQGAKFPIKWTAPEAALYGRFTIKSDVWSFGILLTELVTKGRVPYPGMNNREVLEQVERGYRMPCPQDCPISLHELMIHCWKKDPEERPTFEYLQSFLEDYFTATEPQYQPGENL

Data set [11] in a line: Aggregation property of the compound in PBS buffer at 10 to 100 uM incubated for 2 hrs by UV/Vis double beam spectrophotometric method. The data set is classed as physicochemical. The following applies: dose 10-100 µM.
The target in data set [12] is T1, Tyrosine-protein kinase Fyn. Kind of data set: Inhibition of natural amyloid beta (1 to 42) -induced Fyn activation in hiPSC neural progenitor cells assessed as reduction in Fyn production at 10 uM preincubated fot 45 mins followed by amyloid beta addition and measured after 15 mins by DAPI/Alexa fluor 594 immunostaining based assay. The following applies: Induced pluripotent stem cell-derived neuron, time 60.0 min.
Target sequence in this assay (P06241 2-537 limits assumed): as above

For data set [13] the target is unchanged. Kind of data set: Inhibition of Fyn activation (unknown origin) by ADP-Glo kinase assay.
Target sequence in this assay (P06241 2-537 limits assumed): as above
The conditions of data set [14]: pampa, pH 7.4, 16 h.
The nature of data set [15]: Aqueous solubility of the compound in 5 % DMSO at 50 to 100 uM incubated for 2 hrs. The data set is classed as physicochemical. As to conditions: buffer, dose 50-100 µM.
For data set [16] the following is noted: buffer, 100 µM.
Data set [17] in a line: Cytotoxicity against hiPSC neural cells assessed as reduction in cell viability up to 100 uM incubated for 24 hrs by MTT assay. As to conditions: human, induced pluripotent stem cell-derived neuron. The data set is classed as cell-based.
The nature of data set [18]: Cytotoxicity against hiPSC neural cells assessed as reduction in cell viability up to 50 uM incubated for 24 hrs by MTT assay. As to conditions: human, induced pluripotent stem cell-derived neuron. The class given is cell-based.
Data set [19] is described as follows: Membrane retention of compound at pH 7.4 incubated for 16 hrs by PAMPA assay. The class given is ADME. As to conditions: pH 7.4, 16 h.

Calls of active or inactive are those of the source. The rule behind the calls is not given here.

Cholinesterase (Equus caballus), sequence (P81908 whole entry): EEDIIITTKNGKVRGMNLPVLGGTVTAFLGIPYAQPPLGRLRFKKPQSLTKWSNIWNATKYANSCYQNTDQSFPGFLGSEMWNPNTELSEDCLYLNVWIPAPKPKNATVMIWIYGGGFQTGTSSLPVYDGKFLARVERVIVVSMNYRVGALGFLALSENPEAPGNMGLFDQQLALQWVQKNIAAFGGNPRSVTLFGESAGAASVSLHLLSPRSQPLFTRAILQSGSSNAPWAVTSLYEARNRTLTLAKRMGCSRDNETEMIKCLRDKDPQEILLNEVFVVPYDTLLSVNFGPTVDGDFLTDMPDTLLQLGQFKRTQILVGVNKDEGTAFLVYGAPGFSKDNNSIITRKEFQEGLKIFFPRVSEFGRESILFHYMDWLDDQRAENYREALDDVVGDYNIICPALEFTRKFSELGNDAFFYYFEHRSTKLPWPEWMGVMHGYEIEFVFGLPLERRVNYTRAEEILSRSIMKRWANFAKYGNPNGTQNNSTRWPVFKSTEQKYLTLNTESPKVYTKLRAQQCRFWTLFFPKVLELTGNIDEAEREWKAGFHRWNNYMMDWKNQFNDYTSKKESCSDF
Acetylcholinesterase (Electrophorus electricus), sequence (O42275 24-633 limits assumed): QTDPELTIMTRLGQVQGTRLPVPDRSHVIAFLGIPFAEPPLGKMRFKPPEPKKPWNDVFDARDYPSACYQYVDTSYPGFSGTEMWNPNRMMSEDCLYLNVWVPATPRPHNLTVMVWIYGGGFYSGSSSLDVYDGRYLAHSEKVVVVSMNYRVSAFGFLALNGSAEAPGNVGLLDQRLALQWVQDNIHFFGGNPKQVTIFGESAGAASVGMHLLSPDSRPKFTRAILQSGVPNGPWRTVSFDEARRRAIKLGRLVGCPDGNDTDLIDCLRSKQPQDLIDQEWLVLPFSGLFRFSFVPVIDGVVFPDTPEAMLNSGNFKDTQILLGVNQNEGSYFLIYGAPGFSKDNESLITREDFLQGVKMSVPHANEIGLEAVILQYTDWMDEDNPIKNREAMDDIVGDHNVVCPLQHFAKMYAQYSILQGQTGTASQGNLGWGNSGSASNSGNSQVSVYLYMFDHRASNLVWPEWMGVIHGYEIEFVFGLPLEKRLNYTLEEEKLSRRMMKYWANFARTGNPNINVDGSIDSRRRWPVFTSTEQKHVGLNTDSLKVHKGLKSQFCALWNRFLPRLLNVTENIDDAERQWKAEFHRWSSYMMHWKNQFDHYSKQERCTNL
Amyloid-beta precursor protein (Homo sapiens), sequence (P05067 whole entry): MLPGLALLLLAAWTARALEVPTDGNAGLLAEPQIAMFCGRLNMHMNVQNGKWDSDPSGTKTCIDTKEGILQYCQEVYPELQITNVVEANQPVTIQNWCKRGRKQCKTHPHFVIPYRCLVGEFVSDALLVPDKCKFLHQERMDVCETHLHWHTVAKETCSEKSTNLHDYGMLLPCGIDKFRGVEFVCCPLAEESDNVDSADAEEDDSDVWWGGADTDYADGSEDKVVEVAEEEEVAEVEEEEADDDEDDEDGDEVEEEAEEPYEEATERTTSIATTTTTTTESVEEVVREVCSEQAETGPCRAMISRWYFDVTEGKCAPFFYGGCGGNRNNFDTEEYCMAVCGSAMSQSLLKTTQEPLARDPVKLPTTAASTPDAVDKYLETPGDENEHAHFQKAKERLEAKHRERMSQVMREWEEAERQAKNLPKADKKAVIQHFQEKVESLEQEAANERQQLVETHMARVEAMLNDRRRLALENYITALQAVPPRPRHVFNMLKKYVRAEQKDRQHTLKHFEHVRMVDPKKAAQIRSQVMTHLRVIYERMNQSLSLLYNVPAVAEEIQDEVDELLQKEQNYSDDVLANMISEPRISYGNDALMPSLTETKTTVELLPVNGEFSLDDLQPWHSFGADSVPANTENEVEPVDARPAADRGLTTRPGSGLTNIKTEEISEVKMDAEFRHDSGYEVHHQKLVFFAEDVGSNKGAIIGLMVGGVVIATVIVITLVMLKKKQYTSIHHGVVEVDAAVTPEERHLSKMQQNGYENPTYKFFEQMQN

On to `O=C(Oc1ccc(OC(=O)c2ccccc2)c([C@@H]2O[C@H](CO)[C@@H](O)[C@H](O)[C@H]2O)c1)c1ccccc1`, for which, in [1], the Activity entry is “Non-Toxic”. The inhibition result in data set [2] was “inactive”. The same compound showed a logD at 2 h, 1 µM in data set [3] of 2. The inhibition in data set [4] came out at 21%. Also, the “inhibition (INH)” value in [5] was “Not Active”.
On to `O=C(Cc1ccccc1)c1c(O)cc(O)c([C@@H]2O[C@H](CO)[C@@H](O)[C@H](O)[C@H]2O)c1O`, for which, in data set [2], the inhibition entry was “inactive”. This compound also yielded an inhibition in data set [4] of 17%.
Consider `Oc1ccc(OC2O[C@H](COCc3ccccc3)[C@@H](OCc3ccccc3)[C@H](OCc3ccccc3)[C@H]2OCc2ccccc2)cc1` (stereo partly specified), for which, in data set [6], the inhibition entry is “inactive”.
On to `O=C(Oc1ccccc1O[C@H]1O[C@H](CO)[C@@H](O)[C@H](O)[C@H]1O)c1ccccc1`, for which the inhibition in [7] turned out to be 74%; in data set [2], 10%; in data set [4] it was 17%. In addition, the Activity entry in data set [1] is “Non-Toxic”; in data set [9] it was “Not Active”; in data set [11], “Not Active”. This compound also displayed a log distribution coefficient (logD) at 2 h, 1 µM in [3] of 0.1. Also, the inhibition result in [6] and in data set [10] was “inactive” each time. Besides, the Ki in data set [8] was 39 µM. For the same compound, in data set [5], the “inhibition (INH)” value is “Not Active”.
For the compound `COC[C@H]1O[C@@H](c2c(O)cc(O)cc2O)[C@H](OC)[C@@H](OC)[C@@H]1OC`, the Activity entry in [1] is “Non-Toxic”; in data set [9], “Not Active”; in data set [11], “Not Active”. Moreover, the inhibition entry in data set [2] and in [10] was “inactive” in each case. In data set [3], this compound came in with a logD at 2 h, 1 µM of 1.6. In data set [4], this compound had an inhibition of 10%. For the same compound, the “inhibition (INH)” value in [5] is “Not Active”. The inhibition entry in [12] and in data set [13] was “Active” each time.
Take `COC[C@H]1O[C@@H](c2cc(OC(=O)c3ccccc3)ccc2OC(=O)c2ccccc2)[C@H](OC)[C@@H](OC)[C@@H]1OC`: the Activity result in data set [1] is “Non-Toxic”. The inhibition turned out to be 19% in [2] and 16% in data set [4]. Moreover, the logPeff result in data set [14] is “Not Active”. The compound also displayed a logD at 2 h, 1 µM in data set [3] of more than 2.5. The solubility result in [15] and in data set [16] was “Insoluble” throughout. Also, the “inhibition (INH)” value in data set [5] is listed as “Not Active”. For the same compound, the inhibition entry in data set [12] and in data set [10] was “Active” throughout.
In the case of `COC[C@H]1O[C@@H](c2ccc(O)c(O)c2)[C@H](OC)[C@@H](OC)[C@@H]1OC`, the Activity result in data set [1] is reported as “Non-Toxic”. In addition, the inhibition amounted to 15% in [2] and 16% in [4]. Further, the logD at 2 h, 1 µM in [3] is 1.1. The inhibition entry in [6] was “inactive”. Also, the “inhibition (INH)” value in data set [5] is given as “Not Active”.
`O=c1c(-c2ccc(O)cc2)coc2c([C@@H]3O[C@H](CO)[C@@H](O)[C@H](O)[C@H]3O)c(O)cc(O)c12`: in data set [3], the logD at 2 h, 1 µM is -0.1.
Turning to `COC[C@H]1O[C@@H](c2cc(O)ccc2O)[C@H](OC)[C@@H](OC)[C@@H]1OC`, the Activity result is listed as “Non-Toxic” in [1], “Not Active” in data set [9] and “Not Active” in data set [11]. Besides, the inhibition result in [2] and in data set [6] was “inactive” in each case. Moreover, in data set [4], the inhibition was found to be 21%. For the same compound, the “inhibition (INH)” value in data set [5] is given as “Not Active”. In addition, the inhibition entry in [13] and in [10] was “Active” throughout.
As to `O=C(Oc1ccc([C@@H]2O[C@H](CO)[C@@H](O)[C@H](O)[C@H]2O)cc1OC(=O)c1ccccc1)c1ccccc1`, the Activity entry is given as “Non-Toxic” in data set [1], “Not Active” in data set [9], “Non-Toxic” in data set [17] and “Not Active” in [11]. In addition, the inhibition result in data set [2] and in data set [6] was “inactive” each time. The compound also returned an inhibition in data set [4] of 39%. The “inhibition (INH)” value in data set [5] was “Not Active”. Besides, the inhibition entry in [12] and in data set [10] was “Active” throughout.
Consider `O=C(Oc1ccc(O)c([C@@H]2O[C@H](CO)[C@@H](O)[C@H](O)[C@H]2O)c1)c1ccccc1`, for which the Activity entry in data set [1] is “Non-Toxic”; in data set [9], “Not Active”; in data set [11], “Not Active”. Moreover, the inhibition entry in data set [2], in data set [6] and in data set [4] was “inactive” each time. The logD at 2 h, 1 µM in [3] is less than 0.5. Further, in [5], the “inhibition (INH)” value is on record as “Not Active”. Besides, the inhibition result in data set [12] was “Active”.
For `COC[C@H]1O[C@@H](c2c(O)cc(O)c(C(C)=O)c2O)[C@H](OC)[C@@H](OC)[C@@H]1OC`, the Activity entry in data set [1] was “Non-Toxic”; in data set [18], “Non-Toxic”; in data set [9], “Not Active”; in data set [11] it was “Not Active”. Besides, the inhibition entry in [2], in [6] and in [13] was “inactive” each time. Also, in [3], the logD at 2 h, 1 µM is 2.3. Besides, the inhibition in data set [4] is 16%. Besides, the “inhibition (INH)” value in data set [5] is on record as “Not Active”. In addition, the inhibition entry in data set [12] and in data set [10] was “Active” in each case.
For the compound `O=C(Oc1ccc(O[C@H]2O[C@H](CO)[C@@H](O)[C@H](O)[C@H]2O)cc1)c1ccccc1`, the Activity result in data set [1] and in data set [17] was “Non-Toxic” throughout. The inhibition entry in data set [2] was “inactive”. The logPeff result in data set [14] is recorded as “Not Active”. This compound also returned a logD at 2 h, 1 µM in data set [3] of 1. In data set [4], this compound showed an inhibition of 10%. Moreover, in data set [5], the “inhibition (INH)” value is “Not Active”. Moreover, the inhibition entry in [10] is “Active”.
As for `CC(=O)N1CCN(c2ccc(OCC3COC(Cn4ccnc4)(c4ccc(Cl)cc4Cl)O3)cc2)CC1` (stereo unspecified) [KETOCONAZOLE], in data set [9], the Activity result is “Not Active”.
Consider `CC(=O)c1c(O)cc(O)c([C@@H]2O[C@H](CO)[C@@H](O)[C@H](O)[C@H]2O)c1O`, for which the Activity result in data set [1] is reported as “Non-Toxic”; in [9], “Not Active”; in data set [17], “Non-Toxic”; in data set [11], “Not Active”. Further, the inhibition result in [2] was “inactive”. Moreover, the logPeff entry in [14] is given as “Bld”. This compound also registered an inhibition in data set [4] of 15%. In [5], the “inhibition (INH)” value is listed as “Not Active”. The inhibition result in data set [12] and in [10] was “Active” each time.
In the case of `COC[C@H]1O[C@@H](c2cc(OC(=O)c3ccccc3)ccc2O)[C@H](OC)[C@@H](OC)[C@@H]1OC`, the Activity result in data set [1] is listed as “Non-Toxic”. In addition, the inhibition was found to be 14% in [2] and 12% in data set [4]. For the same compound, the logD at 2 h, 1 µM in data set [3] amounted to 3.2. The Drug uptake in [19] was determined as 80%. Moreover, the “inhibition (INH)” value in [5] is recorded as “Not Active”.
On to `COC[C@H]1O[C@@H](c2c(O)ccc3ccccc23)[C@H](OC)[C@@H](OC)[C@@H]1OC`, for which the Activity result in data set [1] is “Non-Toxic”. Besides, in data set [2], the inhibition entry was “inactive”. Moreover, the logD at 2 h, 1 µM in data set [3] came to 2.7. Besides, the inhibition in [4] came to 23%. Also, the “inhibition (INH)” value in data set [5] is “Not Active”.
With `OC[C@H]1O[C@@H](c2c(O)ccc3ccccc23)[C@H](O)[C@@H](O)[C@@H]1O`, the Activity entry was “Non-Toxic” in data set [1], “Not Active” in data set [9] and “Not Active” in [11]. Further, the inhibition entry in data set [2] and in data set [6] was “inactive” throughout. In data set [4], the inhibition was 10%. Moreover, in data set [5], the “inhibition (INH)” value was “Not Active”. In data set [12], the inhibition entry was “Active”.
As to `O=C(Cc1ccccc1)c1c(O)cc(O)cc1O`, the inhibition result in data set [6] was “inactive”.
With `O=C(Cc1ccccc1)Oc1cc(O)cc(O)c1`, the inhibition entry in [6] was “inactive”.
